Laboratory results taken from patent publication US20100190826A1, “BENZIMIDAZOLE DERIVATIVE” (priority 2007, published 2010).

How the values were obtained:
human 17βHSD type 5 = target: T1, human 17βHSD type 5 (Homo sapiens, UniProt P42330); assay: Measurement of enzyme activity of human 17βHSD type 5 (testosterone production from androstenedione); assay type: biochemical; settings: purified enzyme 10 μg/mL, androstenedione 300 nM, NADPH 200 μM, pH 6.0, room temperature 2 hours; read-out: Type5 IC50
T1 construct: A full-length cDNA encoding human 17βHSD type 5; GST (cleaved yes); made in house; host or cells: Escherichia coli BL21
T1 sequence (P42330 1-323): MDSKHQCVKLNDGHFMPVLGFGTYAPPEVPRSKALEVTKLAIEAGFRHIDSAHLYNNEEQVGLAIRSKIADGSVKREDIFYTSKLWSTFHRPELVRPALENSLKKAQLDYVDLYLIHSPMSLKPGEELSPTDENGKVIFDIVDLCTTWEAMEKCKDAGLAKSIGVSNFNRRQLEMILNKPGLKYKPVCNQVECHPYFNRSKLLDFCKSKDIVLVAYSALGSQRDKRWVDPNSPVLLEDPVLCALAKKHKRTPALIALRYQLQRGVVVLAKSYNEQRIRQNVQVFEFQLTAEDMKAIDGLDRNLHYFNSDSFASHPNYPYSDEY
From the text: (§1) An excellent selective inhibitory activity against human 17βHSD type 5 of the compounds of the present invention was confirmed by the test method described below. In this connection, the test may be carried out by referring to the details of test procedure described in Maniatis, T. et al., Molecular Cloning—A Laboratory Manual Cold Spring Harbor Laboratory, NY (1982) and the like. In addition, genes encoding human 17βHSD type5 and type3 described in Sections 1 and 2 below, and human 17βHSD type 5 and type 3 may be obtained by the method described in Molecular Endocrinology, 1997, 11(13), 1971-1984.
1. Isolation of Gene Encoding Human 17βHSD Type 5 and Enzyme Purification
A full-length cDNA encoding human 17βHSD type 5 used in the pharmacological test of the present invention was obtained by the PCR method using a cDNA derived from a human lung cancer-derived cell line, A549 cells as a template. The nucleotide sequence of the obtained cDNA was analyzed by the dideoxyterminator method, and the clone matched with the known human 17βHSD type 5 sequence (GenBank accession No. NM_003739) was selected. Escherichia coli BL21 was transformed with a plasmid containing the cDNA and cultured on a large scale. The proteins were purified by using GSTrapFF column (manufactured by Amersham) and PreScissionProtease (manufactured by Amersham). The purification method was carried out in accordance with the instructions attached to the GSTrapFF column.
(§2) 3. Measurement of Enzyme Activities of Human 17βHSD Type 5 and Type 3
(§3) Enzyme activity was measured referring to Trevor M. Penning, et al., Biochem. J., 351, 67-77, (2000). Specifically, using a 100 mM potassium phosphate buffer (pH 6.0), (1) the enzyme purified in Section 1 at a final concentration of 10 μg/mL, (2) androstenedione at a final concentration of 300 nM, (3) NADPH at a final concentration of 200 μM, and (4) a test substance, were mixed to react at room temperature for 2 hours, and then the amount of testosterone produced was measured using DELFIA (registered trademark) Testosterone Reagents R050-201 (manufactured by PerkinElmer). The measurement was performed in accordance with the attached instructions. The amount of reduction of testosterone production in the presence of the compound was obtained as a relative value with respect to the amount of testosterone in the absence of the enzyme set at 0% and the amount of testosterone produced in the absence of the compound set at 100%. Then, IC50 values were calculated by the Logistic regression method.

human 17βHSD type 3 = target: T2, human 17βHSD type 3 (Homo sapiens, UniProt P37058); assay: Measurement of enzyme activity of human 17βHSD type 3; assay type: biochemical; settings: enzyme source: supernatant of transformed 293 cells; read-out: Type3 IC50
T2 construct: A full-length cDNA encoding human 17βHSD type 3; made in house; host or cells: human fetus kidney-derived 293 cells (transient, 24 h); supernatant of disrupted cells
T2 sequence (P37058 1-310): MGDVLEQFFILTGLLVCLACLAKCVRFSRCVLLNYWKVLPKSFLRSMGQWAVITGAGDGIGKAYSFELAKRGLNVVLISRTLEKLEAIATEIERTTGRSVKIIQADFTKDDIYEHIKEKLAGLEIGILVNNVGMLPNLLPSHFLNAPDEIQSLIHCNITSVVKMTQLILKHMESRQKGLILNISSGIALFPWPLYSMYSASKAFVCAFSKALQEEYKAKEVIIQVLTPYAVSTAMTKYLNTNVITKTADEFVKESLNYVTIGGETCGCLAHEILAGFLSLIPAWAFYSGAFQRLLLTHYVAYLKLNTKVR
From the text: as §1
2. Isolation of Gene Encoding Human 17βHSD Type 3 and Enzyme Purification
A full-length cDNA encoding human 17βHSD type 3 used in the pharmacological test of the present invention was obtained by the PCR method using a cDNA derived from human testis as a template. The nucleotide sequence of the obtained cDNA was analyzed by the dideoxyterminator method, and the clone matched with the known human 17βHSD type 3 sequence (GenBank accession No. BCO34281) was selected. Subsequently, human fetus kidney-derived cell line, 293 cells, were transformed with a plasmid containing the cDNA, and the cells were collected 24 hours later. The collected cells were then disrupted in a phosphate buffer solution containing 5% glycerol (500 μL per 100 mm-dish of a phosphate buffer solution (pH 7.4, 200 mM) containing 5% glycerol) and centrifuged (16000 rpm, 5 min, 4° C.), and the supernatant was used as an enzyme source.
as §2, §3

[1] = target: T3, human 17βHSD type 5-expressing LNCaP cells (Homo sapiens, UniProt P42330); assay: Cell growth inhibitory activity using LNCaP cells expressing human 17βHSD type 5 (androstenedione-stimulated, CellTiter-Glo); assay type: cell-based; settings: androstenedione 10 nM, culturing for 7 days; read-out: LNCaP-17β5 IC50
T3 sequence (P42330 1-323): T1 sequence (P42330 1-323)
Experimental: Subsequently, LNCaP cells expressing human 17βHSD type 5 were constructed from a human prostate cancer-derived cell line, LNCaP cells, and a cell growth inhibitory activity of the compound of the present invention was evaluated.
4. Construction of LNCaP Cells Expressing Human 17βHSD Type 5
A full-length cDNA encoding human 17βHSD type 5 used in the pharmacological test of the present invention was obtained by the PCR method using a cDNA derived from a human lung cancer-derived cell line, A549 cells, as a template. The nucleotide sequence of the obtained cDNA was analyzed by the dideoxyterminator method, and the clone matched with the known human 17βHSD type 5 sequence (GenBank accession No. NM_003739) was selected. The human prostate cancer-derived cell line LNCaP cells were transformed with a plasmid containing the cDNA and the cell line showing stable expression was obtained.
5. Measurement of Cell Growth Capability Using LNCaP Cells Expressing Human 17βHSD Type 5
9000 cells/well of the transformed cells obtained in Section 4 above were seeded in a 96-well plate and cultured overnight. Then, androstenedione, in conjunction with a test compound, was added thereto at a final concentration of 10 nM, followed by culturing for 7 days. After the culturing, number of the cells was counted using a CellTiter-Glo (registered trademark) Luminescent Cell Viability Assay (Promega). The CellTiter-Glo (registered trademark) Luminescent Cell Viability Assay is a reagent that measures the number of the cells by monitoring an intracellular ATP level from the luminescence intensity by luciferase. The experimental manipulation was carried out in accordance with the attached instructions. The cell growth inhibitory activity in the presence of a test compound was calculated as a relative value with respect to the number of the cells in the absence of androstenedione set at proliferation of 0%, and the number of the cells in the presence of androstenedione and in the absence of the test compound set at proliferation of 100%. Then, IC50 values were calculated by the Logistic regression method.

5α-reductase = settings: patients with BPH, after administration of finasteride; cited from earlier work

Structure (SMILES) | IC50 (human 17βHSD type 5) | IC50 (human 17βHSD type 3) | GI50 [1] | concentration of DHT in the prostate relative to the concentration before the administration (5α-reductase) | increase of the concentration of testosterone in the prostate (5α-reductase)
N#Cc1ccc2c(ccn2-c2cccc(C(=O)O)c2)c1 [Example 1, 3-(5-cyano-1H-indol-1-yl) benzoic acid] | 200 nM | > 10000 nM | 6680 nM | – | –
O=C(O)c1cccc(-n2c(-c3ccccc3)nc3cc(C(F)(F)F)ccc32)c1 [Example 17] | 180 nM | 6400 nM | 66 nM | – | –
Cc1nc2cc(C(F)(F)F)ccc2n1-c1cccc(C(=O)O)c1 [Example 21] | 110 nM | 4700 nM | 102 nM | – | –
O=C(O)c1cccc(-n2c(C(F)(F)F)nc3cc(C(F)(F)F)ccc32)c1 [Example 54, 3-[2,5-bis(trifluoromethyl)-1H-benzimidazol-1-yl]benzoic acid] | 70 nM | 3200 nM | 141 nM | – | –
CC(C)(C)NC(=O)[C@H]1CC[C@H]2[C@@H]3CC[C@H]4NC(=O)C=C[C@]4(C)[C@H]3CC[C@]12C [finasteride] | – | – | – | about 20% | 4 fold

The remaining molecules from weak to strong by IC50 (human 17βHSD type 5), led by results:

IC50 (human 17βHSD type 5) | IC50 (human 17βHSD type 3) | GI50 [1] | Structure (SMILES) | concentration of DHT in the prostate relative to the concentration before the administration (5α-reductase) | increase of the concentration of testosterone in the prostate (5α-reductase)
180 nM | 2500 nM | 92 nM | COCCc1cn(-c2cccc(C(=O)O)c2)c2ccc(C(F)(F)F)cc12 [Example 47, 3-[3-(2-methoxyethyl)-5-(trifluoromethyl)-1H-indol-1-yl]benzoic acid] | – | –
120 nM | 7300 nM | 101 nM | O=C(O)c1cccc(-n2cnc3cc(C(F)(F)F)ccc32)c1 [Example 20] | – | –
120 nM | – | 46 nM | COc1nc2cc(C(F)(F)F)ccc2n1-c1cccc(C(=O)O)c1 [Example 32] | – | –
96 nM | > 10000 nM | 45 nM | O=C(O)c1cccc(-n2c(Cc3ccccc3)nc3cc(C(F)(F)F)ccc32)c1 [Example 38] | – | –
50 nM | 1800 nM | 46 nM | O=C(O)c1cccc(-n2cc(-c3ccccc3)c3cc(C(F)(F)F)ccc32)c1 [Example 6] | – | –
40 nM | – | 34 nM | O=C(O)c1cccc(-n2c(COc3ccccc3)nc3cc(C(F)(F)F)ccc32)c1 [Example 44] | – | –
